We go through one compound from ChEMBL document CHEMBL6153170 (J Med Chem, 2025).

Data set [1] deals with B16-F10. The data set is described as follows: Effect on STAT3 expression level in mouse B16-F10 cells at 0.1 to 2 uM incubated for 24 hrs by Western blot analysis. The data set is classed as functional, cell-based. The following applies: dose 0.1-2 µM. (In western blotting, separated proteins are transferred to a membrane and probed.)
The nature of data set [2]: Aqueous solubility of compound incubated for 24 hrs by miniaturized shake flask based HPLC analysis. The data set is classed as physicochemical. As to conditions: buffer.
For data set [3], the target named is Programmed cell death 1 ligand 1 (Mus musculus, UniProt Q9EP73). The data set is described as follows: Binding affinity to C-terminal 6His-tagged recombinant mouse PD-L1 (1 to 238 residues) expressed in HEK293 cells assessed as dissociation constant by SPR analysis.
Sequence of Programmed cell death 1 ligand 1 (Q9EP73 whole entry, the tested form may be a part): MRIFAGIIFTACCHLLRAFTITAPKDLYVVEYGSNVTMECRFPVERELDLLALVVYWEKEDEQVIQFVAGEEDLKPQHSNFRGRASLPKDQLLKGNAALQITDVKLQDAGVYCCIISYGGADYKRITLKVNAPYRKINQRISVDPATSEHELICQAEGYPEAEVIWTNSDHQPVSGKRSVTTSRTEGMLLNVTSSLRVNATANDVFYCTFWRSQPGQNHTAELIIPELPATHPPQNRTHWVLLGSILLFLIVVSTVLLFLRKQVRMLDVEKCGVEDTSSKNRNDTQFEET
A short description of data set [4]: Cmax in male Sprague-Dawley rat at 2 mg/kg, iv measured after 48 hrs by triple quadrupole mass spectrometric analysis. The data set is classed as ADME, organism-based. The following applies: in vivo.
In data set [5] the test system is HepG2. The data set is described as follows: cells. The following applies: Homo sapiens, HepG2, 48 h.
A short description of data set [6]: Apparent volume of distribution during terminal phase in male Sprague-Dawley rat at 2 mg/kg, iv measured after 48 hrs by triple quadrupole mass spectrometric analysis. The following applies: in vivo. The data set is classed as ADME, organism-based.
The target of data set [7] is T1, Protein deacetylase HDAC6 (Mus musculus) (UniProt Q9Z2V5).
T1 sequence (whole entry): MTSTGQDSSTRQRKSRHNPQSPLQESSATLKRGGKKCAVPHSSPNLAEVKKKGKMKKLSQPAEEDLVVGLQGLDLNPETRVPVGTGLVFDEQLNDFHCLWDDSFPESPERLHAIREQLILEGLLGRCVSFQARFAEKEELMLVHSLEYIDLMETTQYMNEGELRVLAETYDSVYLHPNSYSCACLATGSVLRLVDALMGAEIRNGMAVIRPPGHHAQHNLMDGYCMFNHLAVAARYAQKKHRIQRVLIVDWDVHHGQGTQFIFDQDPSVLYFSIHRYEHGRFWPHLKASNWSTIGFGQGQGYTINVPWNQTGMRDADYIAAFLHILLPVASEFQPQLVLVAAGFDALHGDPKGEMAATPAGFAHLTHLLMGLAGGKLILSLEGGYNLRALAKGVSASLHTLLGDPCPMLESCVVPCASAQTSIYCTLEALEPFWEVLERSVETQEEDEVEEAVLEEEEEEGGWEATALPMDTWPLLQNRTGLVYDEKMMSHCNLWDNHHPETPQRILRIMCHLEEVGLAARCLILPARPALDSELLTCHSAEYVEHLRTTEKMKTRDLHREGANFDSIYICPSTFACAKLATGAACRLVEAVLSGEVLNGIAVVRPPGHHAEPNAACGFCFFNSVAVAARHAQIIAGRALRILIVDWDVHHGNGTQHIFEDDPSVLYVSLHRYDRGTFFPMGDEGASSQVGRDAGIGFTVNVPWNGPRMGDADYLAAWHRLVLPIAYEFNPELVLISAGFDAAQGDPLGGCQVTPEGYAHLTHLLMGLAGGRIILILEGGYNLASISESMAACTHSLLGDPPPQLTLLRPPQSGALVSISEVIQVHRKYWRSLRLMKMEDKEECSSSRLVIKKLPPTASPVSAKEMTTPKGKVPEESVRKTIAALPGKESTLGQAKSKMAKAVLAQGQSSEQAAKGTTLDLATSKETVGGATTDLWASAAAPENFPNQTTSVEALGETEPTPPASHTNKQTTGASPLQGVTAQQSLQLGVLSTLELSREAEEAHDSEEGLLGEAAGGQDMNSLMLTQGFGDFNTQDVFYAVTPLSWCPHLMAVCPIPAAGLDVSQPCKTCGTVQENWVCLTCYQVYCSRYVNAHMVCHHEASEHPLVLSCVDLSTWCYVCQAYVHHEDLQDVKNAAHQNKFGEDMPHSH
The experiment in a line: In vivo inhibition of HDAC6 in C57BL/6 mouse model implanted with mouse B16-F10 cells assessed as increase in acetylated alpha-tubulin protein level in tumor at 20 mg/kg/day, ip administered for 14 days by Western blot analysis. The class given is functional, organism-based. The following applies: time 14.0 day.

Data set [8] deals with Histone deacetylase 3 (Homo sapiens) (UniProt O15379). The experiment in a line: Inhibition of HDAC3 in human Jurkat T cells assessed as increase in acetylated H3 level incubated for 12 hrs by Western blot analysis. The data set is classed as cell-based.
Sequence of Histone deacetylase 3 (Homo sapiens) (O15379 whole entry): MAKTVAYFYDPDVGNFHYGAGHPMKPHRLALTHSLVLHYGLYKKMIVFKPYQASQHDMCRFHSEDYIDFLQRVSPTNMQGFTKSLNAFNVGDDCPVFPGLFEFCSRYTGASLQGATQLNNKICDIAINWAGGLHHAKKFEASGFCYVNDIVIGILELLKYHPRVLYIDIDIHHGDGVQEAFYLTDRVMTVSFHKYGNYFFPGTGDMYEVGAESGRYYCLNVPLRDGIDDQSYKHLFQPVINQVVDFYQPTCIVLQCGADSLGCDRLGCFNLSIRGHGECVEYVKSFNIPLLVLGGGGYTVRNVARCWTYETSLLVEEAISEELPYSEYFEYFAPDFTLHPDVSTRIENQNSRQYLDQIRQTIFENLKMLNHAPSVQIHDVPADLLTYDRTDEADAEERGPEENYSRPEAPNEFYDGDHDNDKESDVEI
Data set [9] deals with T2, Histone deacetylase 8 (Mus musculus) (UniProt Q8VH37).
T2 sequence (whole entry): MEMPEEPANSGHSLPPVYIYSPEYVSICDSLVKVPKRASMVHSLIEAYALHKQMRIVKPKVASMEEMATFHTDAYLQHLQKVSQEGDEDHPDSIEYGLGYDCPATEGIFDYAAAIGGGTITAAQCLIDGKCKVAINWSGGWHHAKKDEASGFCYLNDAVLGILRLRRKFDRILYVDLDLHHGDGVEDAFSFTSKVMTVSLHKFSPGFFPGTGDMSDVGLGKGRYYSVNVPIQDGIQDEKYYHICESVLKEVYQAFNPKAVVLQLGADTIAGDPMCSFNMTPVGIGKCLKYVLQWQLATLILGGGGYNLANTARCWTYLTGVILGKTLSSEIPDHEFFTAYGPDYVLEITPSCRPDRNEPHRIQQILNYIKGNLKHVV
The data set is described as follows: Inhibition of HDAC8 in mouse B16-F10 cells assessed as increase in acetylated SMC3 level incubated for 12 hrs by Western blot analysis. The data set is classed as cell-based.

Data set [10] can be described thus: MRT (0 to t) in male Sprague-Dawley rat at 2 mg/kg, iv measured after 48 hrs by triple quadrupole mass spectrometric analysis. The data set is classed as ADME, organism-based. The following applies: in vivo.
Data set [11] is described as follows: MRT (0 to t) in male Sprague-Dawley rat at 10 mg/kg, po measured after 48 hrs by triple quadrupole mass spectrometric analysis. The data set is classed as ADME, organism-based. As to conditions: in vivo.
Data set [12] deals with B16-F10. The data set is described as follows: Antitumor immunity activity against mouse B16-F10 cells implanted in C57BL/6 mouse model assessed as CD3+ CD8+ T cell percentage in tumor at 20 mg/kg/day, ip co-administered with ACY-1215 for 14 days by flow cytometric analysis (reference value: 0.52 %). The class given is functional. As to conditions: time 14 day. A general note: In flow cytometry, cells or beads pass a laser one at a time.

A short description of data set [13]: Toxicity in C57BL/6 mouse model implanted with mouse B16-F10 cells assessed as morphological changes in heart at 20 mg/kg/day, ip administered for 14 days by H and E staining based analysis. The data set is classed as organism-based. The following applies: in vivo, 336 h, time 14 day.
The nature of data set [14]: Toxicity in C57BL/6 mouse model implanted with mouse B16-F10 cells assessed as morphological changes in liver at 20 mg/kg/day, ip administered for 14 days by H and E staining based analysis. The data set is classed as organism-based. The following applies: in vivo, 336 h, time 14 day.
The nature of data set [15]: AUC (0 to infinity) in male Sprague-Dawley rat at 2 mg/kg, iv measured after 48 hrs by triple quadrupole mass spectrometric analysis. The data set is classed as ADME, organism-based. The following applies: in vivo.
The subject of data set [16] is B16-F10. The data set is described as follows: Antitumor immunity activity against mouse B16-F10 cells implanted in C57BL/6 mouse model assessed as CD3+ CD8+ T cell percentage in tumor at 20 mg/kg/day, ip administered for 14 days by flow cytometric analysis (reference value: 0.52 %). The data set is classed as functional. As to conditions: time 14 day.
Data set [17] relates to B16-F10. The experiment in a line: Effect on HDAC6 protein level in mouse B16-F10 cells at 0.1 to 2 uM incubated for 12 hrs by Western blot analysis. The data set is classed as functional, cell-based. As to conditions: dose 0.1-2 µM.
Data set [18] can be described thus: Toxicity in C57 mouse assessed as change in ALT level at 20 mg/kg/day, IG administered for 14 days by heat map analysis. As to conditions: in vivo, po, 336 h, time 14 day. The data set is classed as organism-based.
A short description of data set [19]: MRT (0 to infinity) in male Sprague-Dawley rat at 10 mg/kg, po measured after 48 hrs by triple quadrupole mass spectrometric analysis. The class given is ADME, organism-based. As to conditions: in vivo.

pIC50, pKd: −log10 of the molar value. In brackets after ≈: the same amount, converted by molar mass. Activity calls are given as the source filed them. The calls are words filed in the database; no cut-off is given here.

For the compound `COc1nc(-c2cccc(-c3ccccc3)c2C)ccc1CNCCCCCCC(=O)NO`, the result in data set [1] and in data set [17] was inactive. Also, in data set [2], the solubility (thermodynamic) (commonly the concentration in solution at equilibrium with solid) at 24 h was found to be 57 µg/mL (≈ 127 µM). Also, the pKd (in general, the negative decadic logarithm of the Kd, by convention in mol/L) in [3] is 7.26. Also, the peak level in data set [4] (Cmax) was 638 ng/mL. Besides, in data set [5], the pIC50 (as a rule, the IC50 on a negative log10 scale, so that one unit is a factor of ten) is 5.02. The Vz/F in [6] is 8.99 L/kg. The inhibition result in data set [7] was “Active”. The inhibition entry in data set [8] and in data set [9] was “inactive” in each case. Also, the mean residence time MRT last (commonly a mean duration of stay, worked out from the concentration-time curve) at 48 h came to 7.06 h in [10] and 15.3 h in data set [11]. In addition, the Activity in data set [12] is reported as 6.39%; in data set [13], “Non-toxic”; in data set [14], “Non-toxic”; in [16], 11.19%; in data set [18], “Non-toxic”. Besides, the AUC(0-inf) (commonly the area under the concentration-time curve extrapolated to infinity) in data set [15] came to 1290 ng·h/mL. The MRT inf – broadly, the average time that molecules of a dose stay in the body – in [19] is 19.3 h.
